Data reported in patent publication EP1191024A1, “Thiadiazines and their use as inhibitors of metalloproteinases” (Tschesche, Harald, priority 2000, dated 2002).
pIC50: −log10 of the molar value. Where a name gives a salt, the structure may show the parent alone.

molecular target: T1, cdMMP-8 (Homo sapiens, UniProt P22894); assay: MMP microfluorometric profiling assay (fluorogenic Mca-peptide substrate); type: biochemical; conditions: not given
T1 construct: recombinant catalytic domain of human neutrophile Collagenase (cdMMP-8^Met80); made in house; host or cells: E. coli
Experimental: The tested MMP enzymes were prepared more specifically in the laboratories of the applicants, with the exception of MMP-1. MMP-1 from human rheumatoid synovial fibroblasts was purchased from Calbiochem-Novabiochem Corporation, LaJolla. Preparation of the recombinant catalytic domain of human Gelatinase A (cdMMP-2): The catalytic domain of Pro-Gelatinase A was prepared using an E. coli expression system according to the method described by Kröger et al^[19]. The proenzyme was activated with 0.5 mM APMA at 37°C prior to use in the assay. […] Preparation of PMNL-Gelatinase (MMP-9): Latent PMNL-pro-Gelatinase was prepared from human plasma buffy coat as described by Tschesche et al^[21]. PMNL-pro-Gelatinase was activated prior to use by incubation with Trypsin at 37°C for 10 min. Inactivation of Trypsin was accomplished with TKI. […] The overexpressed protein was isolated as inclusion bodies and the renatured protein was purified by affinity chromatography with a hydroxamate inhibitor coupled column as described^[22]. Preparation of the recombinant catalytic domain of human Collagenase-3 (cdMMP-13): Human pro-cdMMP-13 was prepared using an E. coli expression system according to the method described^[23]. The isolated pro-cdMMP-13 was activated prior to use by incubation with 5 mM HgCl2 for 2 h at 37°C.
The enzymatic activity was measured using a modified version of a resonance energy transfer fluorogenic assay as described^[26]. […] The fluorescent MCA-group is quenched by resonance energy transfer to the 2,4-dinitrophenyl group. Matrix metalloproteinases cleave this substrate at the Gly-Leu bond. Cleavage results in the loss of energy transfer and a large increase in fluorescence of the MCA group. This substrate is commercially available from Bachem, Switzerland.
Enzyme inhibition assays were carried out in MRB which consisted of 50 mM HEPES/NaOH, pH 7.0, 10 mM CaCl2 and 0,02% (w/v) PEG 8000 at 25°C. MMP microfluorometric profiling assay was done in white U-bottomed 96-well plates (Microfluor 1 White, Dynex, USA) with a final substrate concentration of 6 µM MCA-peptide, approximately 0.3 to 5 nM MMP with variable inhibitor concentrations and 2% DMSO vehicle. From a 1.5 mM stock (100% DMSO) the inhibitors were serially diluted with MRB to 15, 10, 5, 3, 1, 0.6, 0.3, 0.1, 0.05, 0.01 and 0.005 µM final assay concentration. Column 1, rows A through H, contained only DMSO for the "enzyme-only" wells in the assay. […] Each measurement was done in triplicate to ensure statistically significant results. The experiment was further controlled for background fluorescence of the substrate, for fluorescence of fully cleaved substrate and for fluorescence quenching or augmentation from solutions containing the test compounds.
Datapoints from eight different MMPs generated on the SpectraFluor Plus were directly visualized on a master Excel spreadsheet. The response of inhibition was determinated for each inhibitor concentration by comparing the amount of hydrolysis (fluorescence units generated over 30 minutes of hydrolysis) of wells containing compound with the "enzyme-only" wells in column 1. With the program GraFit (Erithacus Software Limited) a 4 parameter logistic fit to the dose-response data was used to calculate IC50 values for each compound.

T1 sequence (P22894 100-262 limits assumed): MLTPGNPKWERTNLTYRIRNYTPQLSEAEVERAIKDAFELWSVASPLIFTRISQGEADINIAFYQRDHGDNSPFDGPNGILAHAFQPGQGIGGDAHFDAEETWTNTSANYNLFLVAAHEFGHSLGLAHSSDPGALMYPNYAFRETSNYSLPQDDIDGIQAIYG

First: C[C@H](NS(=O)(=O)N1CCOCC1)C(=O)NC1=NN=C(c2ccc(Cl)cc2)CS1 [Example 28, (2S)-N-[5-(4-Chlorophenyl)-6H-1,3,4-thiadiazin-2yl-]-2-[(4-morpholinylsulfonyl)amino]propanamide]
Second: C[C@H](NS(=O)(=O)c1ccccc1)C(=O)NC1=NN=C(c2ccc(C(F)(F)F)cc2)CS1 [Example 4, (2S)-2-[(Phenylsulfonyl)amino]-N-{5-[4-(trifluormethyl)phenyl]-6H-1,3,4-thiadiazin-2-yl}propanamide]
The pIC50 of the first is 0.24 log units higher: 6.53 for the first, 6.29 for the second.

same assay, conditions: cdMMP-8, @ 15 (µM)

`O=C(CC1NC(=O)NC1=O)NC1=NN=C(c2ccc(C3CCCCC3)cc2)CS1` (stereo not drawn) [Example 25, N-[5-(4-Cyclohexylphenyl)-6H-1,3,4-thiadiazin-2-yl]-2-(2,5-dioxo-4-imidazolidinyl)acetamide] gave a percent inhibition of 56%^a)@ 15.

same assay, conditions: read-out: cdMMP-8 IC50

`C[C@H](NS(=O)(=O)c1ccccc1)C(=O)NC1=NN=C(c2ccc([N+](=O)[O-])cc2)CS1` [Example 9, (2S)-N-[5-(4-Nitrophenyl)-6H-1,3,4-thiadiazin-2-yl]-2-[(phenylsulfonyl)amino]-propanamide] and `C[C@H](NS(=O)(=O)c1ccccc1)C(=O)NC1=NN=C(c2ccc(Br)cc2)CS1` [Example 6, (2S)-N-[5-(4-Bromophenyl)-6H-1,3,4-thiadiazin-2-yl]-2-[(phenylsulfonyl)amino]-propanamide] are within 0.2 log units of each other in pIC50: 6.47 for the first, 6.64 for the second.

Going from `C[C@H](NS(=O)(=O)c1cccnc1)C(=O)NC1=NN=C(c2ccc(Cl)cc2)CS1` [Example 29, (2S)-N-[5-(4-Chlorophenyl)-6H-1,3,4-thiadiazin-2-yl]-2-[(3-pyridylsulfonyl)-amino]propanamide] to `CC(C)[C@H](NS(=O)(=O)c1ccccc1)C(=O)NC1=NN=C(c2ccc(Cl)cc2)CS1` [Example 22, (2S)-N-[5-(4-Chlorophenyl)-6H-1,3,4-thiadiazin-2-yl]-3-methyl-2-[(phenylsulfonyl)amino]butanamide], the pIC50 falls from 6.42 to 5.80 (0.62 log units).

Going from `CC(C)(C)c1ccc(S(=O)(=O)NCC(=O)NC2=NN=C(c3ccc(Cl)cc3Cl)CS2)cc1` [Example 18, 2-{[(4-tert-Butylphenyl)sulfonyl]amino}-N-[5-(2,4-dichlorophenyl)-6H-1,3,4-thiadiazin-2-yl]acetamide] to `COc1ccc(S(=O)(=O)NCC(=O)NC2=NN=C(c3ccc(Cl)cc3Cl)CS2)cc1` [Example 19, N-[5-(2,4-Dichlorophenyl)-6H-1,3,4-thiadiazin-2-yl]-2-{[(4-methoxyphenyl)-sulfonyl]amino}acetamide], the pIC50 rises from 6.31 to 6.51 (0.20 log units). The second is the more potent here.

Compared with `COc1ccc(S(=O)(=O)N[C@@H](C)C(=O)NC2=NN=C(c3ccc(C)cc3)CS2)cc1` [Example 17, (2S)-2-{[(4-Methoxyphenyl)sulfonyl]amino}-N-[5-(4-methylphenyl)-6H-1,3,4-thiadiazin-2-yl]propanamide], `COc1ccc(C2=NN=C(NC(=O)[C@H](C)NS(=O)(=O)c3ccccc3)SC2)cc1` [Example 12, (2S)-N-[5-(4-Methoxyphenyl)-6H-1,3,4-thiadiazin-2-yl]-2-[(phenylsulfonyl)-amino]propanamide] is 0.23 log units higher in pIC50: 6.22 for the first, 6.45 for the second.

`COc1ccc(S(=O)(=O)NCC(=O)NC2=NN=C(c3c(F)c(F)c(F)c(F)c3F)CS2)cc1` [Example 16, 2-{[(4-Methoxyphenyl)sulfonyl]amino}-N-[5-(2,3,4,5,6-pentafluorophenyl)-6H-1,3,4-thiadiazin-2-yl]acetamide] and `C[C@H](NS(=O)(=O)c1ccccc1)C(=O)NC1=NN=C(c2ccc(Cl)s2)CS1` [Example 10, (2S)-N-[5-(5-Chloro-2-thienyl)-6H-1,3,4-thiadiazin-2-yl]-2-[(phenylsulfonyl)-amino]propanamide] are within 0.2 log units of each other in pIC50: 6.28 for the first, 6.43 for the second.

`O=C(CC1NC(=O)NC1=O)NC1=NN=C(c2ccc(Br)cc2)CS1` (stereo not drawn) [Example 24, N-[5-(4-Bromophenyl)-6H-1,3,4-thiadiazin-2-yl]-2-(2,5-dioxo-4-imidazolidinyl)-acetamide] and `O=C(CC1NC(=O)NC1=O)NC1=NN=C(c2ccc(Cl)cc2)CS1` (stereo not drawn) [Example 23, N-[5-(4-Chlorophenyl)-6H-1,3,4-thiadiazin-2-yl]-2-(2,5-dioxo-4-imidazolidinyl)-acetamide] are within 0.2 log units of each other in pIC50: 6.24 for the first, 6.19 for the second.

Compared with `O=C(CC1NC(=O)NC1=O)NC1=NN=C(c2ccc(N3CCCC3)cc2)CS1` (stereo not drawn) [Example 26, 2-(2,5-Dioxo-4-imidazolidinyl)-N-{5-[4-(1-pyrrolidinyl)phenyl]-6H-1,3,4-thiadiazin-2-yl}acetamide], `O=C1C[C@@H](C(=O)NC2=NN=C(c3ccc(Cl)cc3)CS2)NC(=O)N1` [Example 30, (4S)-N-[5-(4-Chlorophenyl)-6H-1,3,4-thiadiazin-2-yl]-2,6-dioxohexahydro-4-pyrimidinecarboxamide] is 0.23 log units higher in pIC50: 5.93 for the first, 6.16 for the second.

`C[C@@H](NS(=O)(=O)c1ccccc1)C(=O)NC1=NN=C(c2ccc(C#N)cc2)CS1` [Example 1, (2R)-N-[5-(4-Cyanophenyl)-6H-1,3,4-thiadiazine-2-yl]-2-[(phenylsulfonyl)amino]-propanamide] and `C[C@H](NS(=O)(=O)c1ccccc1)C(=O)NC1=NN=C(c2ccc(C#N)cc2)CS1` [Example 3, (2S)-N-[5-(4-Cyanophenyl)-6H-1,3,4-thiadiazin-2-yl]-2-[(phenylsulfonyl)amino]-propanamide] are within 0.2 log units of each other in pIC50: 6.33 for the first, 6.36 for the second.

First: C=CCNC1=NN=C(c2ccc(Cl)cc2)CS1 [Example 31, N-Allyl-5-(4-chlorophenyl)-6H-1,3,4-thiadiazin-2-amine hydrobromide]
Second: CC(C)[C@@H](NS(=O)(=O)c1ccccc1)C(=O)NC1=NN=C(c2ccc(Cl)cc2)CS1 [Example 2, (2R)-N-[5-(4-Chlorophenyl)-6H-1,3,4-thiadiazin-2-yl]-3-methyl-2-[(phenylsulfonyl)amino]butanamide]
The pIC50 of the first is 0.78 log units lower: 4.28 for the first, 5.06 for the second.
